The results in this text go back to PubChem BioAssay AID1259332 (Broad Institute, 2017).

Structures are written as SMILES. Active and inactive are the calls of the source. How the calls were made is not given here.

The first experiment in a line: inhibitors of CD40 signaling, dose response, B cell lineage (AID 1259332).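 Further: cells stimulated with CD40 ligand tCD40L; 0% = neutral control wells and -100% = positive control wells.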 As to conditions: B cell line, CD40 signaling inhibition reporter; at 0.38 µM (top of the series).
Turning to `C[C@H]1CN([C@@H](C)CO)C(=O)c2ccccc2-c2ccccc2CO[C@H]1CN(C)Cc1ccc(Oc2ccccc2)cc1`, the activity change, negative = inhibition was 6.67% (inactive).

Staying with this experiment, now noted: B cell line, CD40 signaling inhibition reporter; at 1.1 µM (top of the series).
On to `COc1ccc(C#Cc2ccc([C@H]3[C@@H](CO)N4CCCCN(S(=O)(=O)c5cn(C)cn5)C[C@H]34)cc2)cc1`, for which the activity change, negative = inhibition was 15.6% (inactive).

The same experiment, now with this note: B cell line, CD40 signaling inhibition reporter; at 3.5 µM (top of the series).
In the case of `C[C@@H]1CN([C@@H](C)CO)C(=O)Cc2cc(NS(=O)(=O)c3ccccc3)ccc2O[C@H]1CN(C)Cc1ccc(Cl)c(Cl)c1`, the activity change, negative = inhibition was 0.835% (inactive).

Take `COc1ccc(-c2cnc3c(c2)C(=O)N([C@H](C)CO)C[C@@H](C)[C@@H](CN(C)C(=O)Nc2c(C)noc2C)O3)cc1`: the activity change, negative = inhibition is -1.25% (inactive).

As for `O=S(=O)(c1cccc2cnccc12)N1CCNCC1`, the activity change, negative = inhibition was -9.07% (inactive).

Turning to `O=C(NCCC(c1ccccc1)c1ccco1)c1cccs1` (configuration not stated), the activity change, negative = inhibition was 25.6% (inactive).

As for `CC(C)(C)c1cc(/C=C(\C#N)C(N)=S)cc(C(C)(C)C)c1O`, the activity change, negative = inhibition is 4.91% (inactive).

Staying with this experiment, now noted: B cell line, CD40 signaling inhibition reporter; at 10 µM (top of the series).
On to `CCSc1ccc(-c2cc(NC=O)c3ncc(-c4cccc(C(=O)N(C)C)c4)n3c2)cc1`, for which the activity change, negative = inhibition was 21.6% (inactive).

In the case of `C[C@@H]1CN([C@H](C)CO)C(=O)c2c(c3ccccc3n2C)-c2ccccc2CO[C@H]1CN(C)C(=O)c1cc(Cl)cc(Cl)c1`, the activity change, negative = inhibition is -4.87% (inactive).

Turning to `Cc1cc(C)c2c(c1)SC1=NC(c3ccccc3)(C(F)(F)F)NC(=O)N12` (configuration not stated), the activity change, negative = inhibition was 8.7% (inactive).

For the molecule `CC(C)Cc1ccc(C(C)/C=C2/CCC(CN3CCCCC3)C2=O)cc1` (configuration not stated), the activity change, negative = inhibition was -18.1% (inactive).

Regarding `CCc1cc2c(COC(=O)c3cc(S(=O)(=O)N4CCOCC4)ccc3F)cc(=O)oc2cc1O`, the activity change, negative = inhibition is 11.4% (inactive).
